Data from PubChem BioAssay (NCI).
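Interpolation was linear, between the two tested concentrations surrounding the appropriate level; five concentrations were tested over 48 hours in 96-well plates. TGI is the concentration that stops growth completely.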

Tests used:
Test in all cases: NCI tumour cell line growth inhibition, 48 h
[1] = test system: OVCAR-8 ovarian
[2] = test system: OVCAR-3 ovarian
[3] = test system: OVCAR-5 ovarian
[4] = test system: SR leukemia
[5] = test system: SW-620 colon
[6] = test system: UACC-257 melanoma
[7] = test system: NCI-H226 lung
[8] = test system: RPMI-8226 leukemia
[9] = test system: SNB-19 CNS
[10] = test system: NCI-H23 lung
[11] = test system: SK-MEL-28 melanoma
[12] = test system: SK-MEL-5 melanoma
[13] = test system: U251 CNS
[14] = test system: RXF 393 renal
[15] = test system: IGROV1 ovarian
[16] = test system: SK-MEL-2 melanoma
[17] = test system: M14 melanoma
[18] = test system: UO-31 renal
[19] = test system: K-562 leukemia
[20] = test system: A498 renal
[21] = test system: SF-268 CNS
[22] = test system: CCRF-CEM leukemia
[23] = test system: HL-60(TB) leukemia
[24] = test system: SK-OV-3 ovarian
[25] = test system: DMS 114 small cell lung
[26] = test system: RXF-631 renal
[27] = test system: MOLT-4 leukemia
[28] = test system: SF-295 CNS
[29] = test system: 786-0 renal
[30] = test system: HOP-62 NSCLC
[31] = test system: DMS 273 small cell lung
[32] = test system: COLO 205 colon
[33] = test system: NCI-H522 lung
[34] = test system: HOP-18 NSCLC
[35] = test system: KM20L2 colon
[36] = test system: HCC-2998 colon
[37] = test system: HCT-116 colon
[38] = test system: LXFL 529 NSCLC
[39] = test system: SNB-78 CNS
[40] = test system: HOP-92 NSCLC
[41] = test system: MALME-3M melanoma
[42] = test system: SNB-75 CNS
[43] = test system: EKVX NSCLC
[44] = test system: NCI-H460 lung
[45] = test system: DLD-1 colon
[46] = test system: A549 NSCLC
[47] = test system: UACC-62 melanoma
[48] = test system: HCT-15 colon
[49] = test system: SN12C renal
[50] = test system: SF-539 CNS
[51] = test system: OVCAR-4 ovarian
[52] = test system: ACHN renal
[53] = test system: CAKI-1 renal
[54] = test system: LOX IMVI melanoma
[55] = test system: KM12 colon
[56] = test system: HT29 colon
[57] = test system: TK-10 renal

SMILES: Cc1ccc(N=Nc2c(-c3ccccc3)nn(C(=O)CC(=O)Nc3ccc(Cl)cc3)c2-c2ccccc2)cc1
- TGI [1]: > 100 µM
- TGI [2]: 99.6 µM
- TGI [3]: > 100 µM
- TGI [4]: 57.3 µM
- TGI [5]: > 100 µM
- TGI [6]: > 100 µM
- TGI [7]: > 100 µM
- TGI [8]: 86.7 µM
- TGI [9]: > 100 µM
- TGI [10]: > 100 µM
- TGI [11]: > 100 µM
- TGI [12]: > 100 µM
- TGI [13]: > 100 µM
- TGI [14]: 99.6 µM
- TGI [15]: > 100 µM
- TGI [16]: > 100 µM
- TGI [17]: > 100 µM
- TGI [18]: 86.3 µM
- TGI [19]: > 100 µM
- TGI [20]: 94.9 µM
- TGI [21]: > 100 µM
- TGI [22]: 72.5 µM
- TGI [23]: > 100 µM
- TGI [24]: > 100 µM
- TGI [25]: > 100 µM
- TGI [26]: > 100 µM
- TGI [27]: 79.1 µM
- TGI [28]: > 100 µM
- TGI [29]: > 100 µM
- TGI [30]: > 100 µM
- TGI [31]: > 100 µM
- TGI [32]: > 100 µM
- TGI [33]: > 100 µM
- TGI [34]: > 100 µM
- TGI [35]: > 100 µM
- TGI [36]: > 100 µM
- TGI [37]: > 100 µM
- TGI [38]: 94.5 µM
- TGI [39]: > 100 µM
- TGI [40]: 66.9 µM
- TGI [41]: > 100 µM
- TGI [42]: 73.5 µM
- TGI [43]: 18.3 µM
- TGI [44]: > 100 µM
- TGI [45]: > 100 µM
- TGI [46]: > 100 µM
- TGI [47]: > 100 µM
- TGI [48]: > 100 µM
- TGI [49]: > 100 µM
- TGI [50]: > 100 µM
- TGI [51]: > 100 µM
- TGI [52]: > 100 µM
- TGI [53]: > 100 µM
- TGI [54]: > 100 µM
- TGI [55]: > 100 µM
- TGI [56]: > 100 µM

SMILES: CC1=C(/C=C/C(C)=C/C=C/C(C)=C/C=C/C=C(C)/C=C/C=C(C)/C=C/C=C(C)/C=C/C=C(\C)C(=O)O)C(C)(C)CCC1
- TGI [1]: > 100 µM
- TGI [2]: > 100 µM
- TGI [3]: > 100 µM
- TGI [5]: > 100 µM
- TGI [6]: > 100 µM
- TGI [7]: > 100 µM
- TGI [8]: > 100 µM
- TGI [9]: > 100 µM
- TGI [10]: > 100 µM
- TGI [11]: > 100 µM
- TGI [12]: > 100 µM
- TGI [13]: > 100 µM
- TGI [14]: > 100 µM
- TGI [15]: > 100 µM
- TGI [16]: > 100 µM
- TGI [17]: > 100 µM
- TGI [18]: > 100 µM
- TGI [19]: > 100 µM
- TGI [20]: > 100 µM
- TGI [21]: > 100 µM
- TGI [22]: > 100 µM
- TGI [24]: > 100 µM
- TGI [25]: > 100 µM
- TGI [26]: > 100 µM
- TGI [27]: > 100 µM
- TGI [28]: > 100 µM
- TGI [29]: > 100 µM
- TGI [30]: > 100 µM
- TGI [31]: > 100 µM
- TGI [32]: > 100 µM
- TGI [33]: > 100 µM
- TGI [34]: > 100 µM
- TGI [35]: > 100 µM
- TGI [37]: > 100 µM
- TGI [38]: > 100 µM
- TGI [39]: > 100 µM
- TGI [41]: > 100 µM
- TGI [42]: > 100 µM
- TGI [43]: > 100 µM
- TGI [44]: > 100 µM
- TGI [45]: > 100 µM
- TGI [46]: > 100 µM
- TGI [47]: > 100 µM
- TGI [48]: > 100 µM
- TGI [49]: > 100 µM
- TGI [50]: > 100 µM
- TGI [51]: > 100 µM
- TGI [52]: > 100 µM
- TGI [57]: > 100 µM
- TGI [53]: > 100 µM
- TGI [55]: > 100 µM
- TGI [56]: > 100 µM
